Patent US20230172996A1, “COMPOSITION FOR ALLEVIATING PULMONARY HYPERTENSION, METHOD FOR PREDICTING PROGNOSIS OF PULMONARY HYPERTENSION, METHOD FOR ASSISTING IN DETERMINING SEVERITY OF PULMONARY HYPERTENSION, AND METHOD FOR ASSISTING IN DIAGNOSING PULMONARY HYPERTENSION” (JSR Corporation, priority 2020, published 2023)

Test system: rat model of pulmonary hypertension induced by exposure to hypoxia
Assay: Butyrate-containing water in rat model of pulmonary hypertension induced by exposure to hypoxia
Format: in vivo, SD rats
Details: 100 mM butyrate in water ad libitum for three weeks, oral, compared to vehicle administration group
Experimental: Rats were anesthetized by inhalation of isoflurane (Pfizer) for induction of sedation and analgesia. Throughout the procedure, the body temperature of the rats was maintained at 37 to 38° C. using a rectal thermistor coupled with a thermostatically controlled heating pad. The trachea was cannulated, and the lungs were ventilated with a mouse ventilator (Harvard Apparatus) at a tidal volume of 10 μL/g at a frequency of 70/min. A polyethylene tube was inserted into the right external jugular vein and advanced into the right ventricle to measure right ventricular pressure (RVP). RVP signals were detected by a pressure transducer (MLT0670; ADInstruments), and the signals were relayed to pressure amplifiers (ML117; ADInstruments), and then were sampled continuously with a PowerLab system (ADInstruments, Colorado Springs, Colo.) and recorded on a computer using Chart software (ADInstruments). Heart rate was derived from the right ventricular systolic peaks.
After right ventricular systolic pressure measurement, the rats were killed by anesthesia overdose, and the heart was excised. […] The tissues were blotted, and the weight of the right ventricle (RV) and the weight of the left ventricle (LV)+septum were measured. The ratio of RV to LV+septum weight (the ratio of RV to LV weight) was calculated and used as an index of right ventricular hypertrophy. […]

CCCC(=O)[O-].[Na+] [butyrate, sodium butyrate]
right ventricular systolic pressure (FIG. 33(A)): significant inhibition | right ventricular hypertrophy (ratio of RV to LV weight) (FIG. 33(B)): significant inhibition
